Experimental data taken from patent US20240269139A1, “COMPOUNDS FOR TARGETED PROTEIN DEGRADATION OF KINASES” (DANA-FARBER CANCER INSTITUTE, INC., priority 2020, published 2024).
Like-named read-outs stand apart in the source and are kept apart here.

Key:
[1] = target: protein kinases (human kinome) (Homo sapiens, UniProt Q9NYL2); format: cell-based
[2] = target: T1, protein kinases (human kinome) (Homo sapiens, UniProt P11387); format: cell-based; conditions: TOP1 P11387
T1 sequence (P11387 1-765): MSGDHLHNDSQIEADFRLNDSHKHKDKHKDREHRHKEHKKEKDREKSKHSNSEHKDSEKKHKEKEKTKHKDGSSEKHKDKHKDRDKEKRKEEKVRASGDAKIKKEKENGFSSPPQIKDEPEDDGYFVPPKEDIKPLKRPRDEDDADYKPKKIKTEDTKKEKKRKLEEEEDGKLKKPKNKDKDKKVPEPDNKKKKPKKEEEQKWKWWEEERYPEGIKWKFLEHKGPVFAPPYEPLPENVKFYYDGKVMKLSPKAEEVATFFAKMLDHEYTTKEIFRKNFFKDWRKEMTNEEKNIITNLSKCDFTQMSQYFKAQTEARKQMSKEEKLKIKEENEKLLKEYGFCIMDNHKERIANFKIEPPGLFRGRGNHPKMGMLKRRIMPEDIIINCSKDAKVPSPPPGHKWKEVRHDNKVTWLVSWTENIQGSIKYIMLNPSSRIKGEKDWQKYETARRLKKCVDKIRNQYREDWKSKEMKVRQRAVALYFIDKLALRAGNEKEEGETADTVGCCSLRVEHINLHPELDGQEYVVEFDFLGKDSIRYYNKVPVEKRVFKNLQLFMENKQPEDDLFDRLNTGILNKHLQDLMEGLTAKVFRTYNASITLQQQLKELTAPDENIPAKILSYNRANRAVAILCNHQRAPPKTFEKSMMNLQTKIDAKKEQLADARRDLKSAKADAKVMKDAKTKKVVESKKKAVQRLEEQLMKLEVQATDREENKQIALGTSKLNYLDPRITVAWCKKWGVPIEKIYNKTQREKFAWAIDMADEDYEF

Sequence of protein kinases (human kinome) (Homo sapiens, UniProt Q9NYL2) (Q9NYL2 whole entry): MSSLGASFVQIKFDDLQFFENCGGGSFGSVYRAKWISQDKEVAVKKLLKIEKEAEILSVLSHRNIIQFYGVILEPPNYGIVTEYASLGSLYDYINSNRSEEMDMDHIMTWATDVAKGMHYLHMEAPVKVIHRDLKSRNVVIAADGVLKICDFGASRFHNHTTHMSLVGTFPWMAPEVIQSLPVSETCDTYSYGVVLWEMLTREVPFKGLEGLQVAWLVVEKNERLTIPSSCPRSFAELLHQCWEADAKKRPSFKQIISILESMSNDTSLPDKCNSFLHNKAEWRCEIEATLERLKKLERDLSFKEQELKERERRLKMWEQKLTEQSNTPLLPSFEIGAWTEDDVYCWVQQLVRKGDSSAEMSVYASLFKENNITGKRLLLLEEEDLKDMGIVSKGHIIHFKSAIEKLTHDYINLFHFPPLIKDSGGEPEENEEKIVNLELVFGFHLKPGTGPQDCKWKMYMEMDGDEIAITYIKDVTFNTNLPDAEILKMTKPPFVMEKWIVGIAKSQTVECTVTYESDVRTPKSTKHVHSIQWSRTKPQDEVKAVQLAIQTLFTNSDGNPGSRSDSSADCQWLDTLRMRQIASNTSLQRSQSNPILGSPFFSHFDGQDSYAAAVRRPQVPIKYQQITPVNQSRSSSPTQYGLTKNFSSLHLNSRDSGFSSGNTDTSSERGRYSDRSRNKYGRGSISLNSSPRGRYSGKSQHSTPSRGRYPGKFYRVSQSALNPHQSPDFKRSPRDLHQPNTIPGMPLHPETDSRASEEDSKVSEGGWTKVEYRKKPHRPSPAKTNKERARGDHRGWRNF

SMILES	logFC MAP3K20 (Q9NYL2) ([1]; Experiment wp147, 2 uM)	logFC MAP3K20 ([1]; MAP3K20 Q9NYL2, experiment wp147, 2 uM)	logFC ([2]; experiment wp147, 4 uM)	logFC ([2]; experiment wp056)
CC(C)(C)c1nc(-c2cccc(NS(=O)(=O)c3c(F)cccc3F)c2F)c(-c2ccnc(NCCOCCNC(=O)CCOCCOCCNc3cccc4c3C(=O)N(C3CCC(=O)NC3=O)C4=O)n2)s1 (stereo not shown) [DD.03.106]	−0.4079	−0.4079	−0.4525	
C=CCn1c(=O)c2cnc(Nc3ccc(N4CCN(CCCNc5cccc6c5C(=O)N(C5CCC(=O)NC5=O)C6=O)CC4)cc3)nc2n1-c1cccc(C(C)(C)O)n1 (stereo not shown) [ZNL.02.096]				−0.3756
